Series [1] is described as follows: Stability in aqueous solution. Conditions: pH 3 to 9, 100° C., 10 minutes. The series is classed as physicochemical.
The nature of the next series: Solubilities. The series is classed as physicochemical.
For series [2], the system named is fatty acid degradation which depends on carnitine added (rat liver homogenates). Put plainly: Inhibition of carnitine-dependent fatty acid degradation (14CO2 from 1-14C palmitic acid) in rat liver homogenate. The series is classed as biochemical, rat (SD, male). The procedure:
Then, the fatty acid degradation inhibiting activity of the compound (I), (III), (IV) was determined in accordance with the method described in P.75 "Metabolism of Lipids" which is Vol. 9 of "Seikagaku Jikken Koza" (Text of Biochemical Experiments)compiled by Tokyo Kagaku Dojin, published 1975, using rat liver homogenates. Thus, an SD strain rat (6 weeks of age, male) was fasted for one day and, then, bled to death. The liver was immediately excised and homogenized with 10 times (w/v) of a 0.25 M sucrose solution containing a 5 mM Tris-HCl buffer (pH 7.4), 0.1 mM EDTA and 1 mg/ml bovine serum albumin using a Teflon rod homogenizer. The homogenate was centrifuged at 820 ×g for 10 minutes and the supernatant was further centrifuged at 8,000 ×g for 10 minutes. The resultant pellets were suspended in the same sucrose solution as above to a concentration of 0.2 g wet liver weight/0.5 ml solution and 0.5 ml of the suspension was used as the enzyme solution in the reacrion. […] The inhibitory activity is shown as percentage of inhibitory activity to degradation activity of fatty acid facilitated by the addition of carnitine to that of not added of the compound.

Series [3] has as its system ketone bodies (β-hydroxybutyrate) in blood. Briefly: Antiketogenic activity in fasted rats (blood β-hydroxybutyrate). It counts as in vivo, rat (male Sprague-Dawley). To be noted: % of control rats; 50 mg/kg oral, 4 hours after dosing, 20 h fasted, n = 5. The procedure:
Antiketogenic activities of derivatives of β-amino-γ-trimethylammonio-butyrate were measured as follows: […] Blood […] 4 hours later from a vein of tail and ketone bodies were measured as β-hydroxybutyrate according to the modified method of Williamson [D. H. Williamson et al.; Methods of Enzymatic Analysis, P454 (1968), Academic Press, New York]. The amount of ketone bodies was shown as a relative amount of β-hydroxybutyrate (percentage) to the amount of p-hydroxybutyrate in blood of control rats.

Setting [4] is: in petroleum ether, hexane, diethyl ether, benzene, ethyl acetate, chloroform.
[5] abbreviates: in pyridine, acetone, dimethyl sulfoxide, dimethylformamide.
Where [6] appears, read: concentration of drug 2 mM, R2 = --OH.

Where a name gives a salt, the structure may show the parent alone.

Take `CC(=O)N[C@H](CC(=O)[O-])C[N+](C)(C)C` [FA-5859.hydrochloride]: in series [1], the Stability entry is on record as “stable”. In addition, the Solubility result was “Soluble” in the series “Solubilities” (in ethanol, methanol); “Insoluble” in the series “Solubilities” (setting [4]); “Hardly soluble” in the series “Solubilities” (setting [5]); “Readily soluble” in the series “Solubilities” (in water).

Consider `COC(=O)C[C@@H](N)C[N+](C)(C)C` [--OCH3, [(R)-2-ammonio-3-carbomethoxypropyl]trimethylammonium dipicrate], for which the “Inhibition (%)” value in series [2] (concentration of drug 2 μM) turned out to be 26%; in series [2] (concentration of drug 20 μM) it was 73%.

As for `CCOC(=O)C[C@@H](N)C[N+](C)(C)C` [--OCH2 CH3, [(R)-2-ammonio-3-carboethoxypropyl]trimethylammonium monochloride monopicrate], the “Inhibition (%)” value came to 37% in series [2] (concentration of drug 2 μM) and 85% in series [2] (concentration of drug 20 μM). Besides, in series [3], the “relative amount of β-hydroxybutylate (%)” value is on record as 5.9%.

For the compound `CCCCCCCCCCCCCC(=O)N[C@H](CC(=O)[O-])C[N+](C)(C)C` [--CO(CH2)12 CH3, (R)-3-myristoylamino-4-trimethylammoniobutyrate], the “relative amount of β-hydroxybutylate (%)” value in series [3] is recorded as 7.9%.

As to `C[N+](C)(C)C[C@H](N)CC(N)=O` [--NH2, [(R)-2-ammonio-3-carbamoylpropyl]trimethylammonium dipicrate], the “Inhibition (%)” value in series [2] (concentration of drug 2 μM) stood at 10%; in series [2] (concentration of drug 20 μM), 27%; in series [2] (concentration of drug 0.2 mM) it was 67%.

Consider `CC(=O)N[C@@H](CC(=O)O)C[N+](C)(C)C.[Cl-]` [--COCH3 (D-), [(S)-2-acetylamino-3-carboxypropyl]trimethylammonium chloride], for which the figures for the “Inhibition (%)” value in series [2] (concentration of drug 0.2 mM) and in series [2] (setting [6]) were 2% and 28%, respectively.

Regarding `C[N+](C)(C)C[C@@H](CC(=O)[O-])NC=O` [--COH, [(R)-3-carboxy-2-formylaminopropyl]trimethylammonium picrate], the results for the “Inhibition (%)” value in series [2] (concentration of drug 0.2 mM) and in series [2] (setting [6]) were 53% and 84%, respectively. In addition, the “relative amount of β-hydroxybutylate (%)” value in series [3] came to 75.7%.

With `CCC(=O)N[C@H](CC(=O)O)C[N+](C)(C)C.[Cl-]` [--COCH2 CH3, [(R)-3-carboxy-2-propionylaminopropyl]trimethylammonium chloride], the “Inhibition (%)” value in series [2] (setting [6]) is reported as 44%.

Turning to `C[N+](C)(C)C[C@@H](N)CC(=O)O.Cl.[Cl-]` [--H (D-), [(S)-2-ammonio-3-carboxypropyl]trimethylammonium dichloride], the “Inhibition (%)” value in series [2] (concentration of drug 0.2 mM) is 11%; in series [2] (setting [6]), 36%.

On to `CCCCCCCCCCCCCCCC(=O)N[C@H](CC(=O)[O-])C[N+](C)(C)C` [--CO(CH2)14 CH3, (R)-3-palmitoylamino-4-trimethylammoniobutyrate], for which the “Inhibition (%)” value in series [2] (concentration of drug 2 μM) and in series [2] (concentration of drug 20 μM) was 100% each time. Moreover, the “relative amount of β-hydroxybutylate (%)” value in series [3] was determined as 6.7%.

Consider `CCCC(=O)N[C@H](CC(=O)[O-])C[N+](C)(C)C` [--CO(CH2)2 CH3, [(R)-3-carboxy-2-n-butyrylaminopropyl]trimethylammonium picrate], for which, in series [2] (setting [6]), the “Inhibition (%)” value is reported as 50%.

With `CCCOC(=O)C[C@@H](N)C[N+](C)(C)C` [--O(CH2)2 CH3, [(R)-2-ammonio-3-carbopropoxypropyl]trimethylammonium dipicrate], the “Inhibition (%)” value in series [2] (concentration of drug 2 μM) was found to be 41%; in series [2] (concentration of drug 20 μM), 69%.

Regarding `CN[C@H](CC(=O)[O-])C[N+](C)(C)C` [--CH3, [(R)-2-methylammonio-3-carboxypropyl]trimethylammonium . dichloride], the “Inhibition (%)” value in series [2] (concentration of drug 0.2 mM) amounted to 89%; in series [2] (setting [6]), 100%. Also, the “relative amount of β-hydroxybutylate (%)” value in series [3] is 19.9%.

On to `C[N+](C)(C)C[C@@H](CC(=O)O)NC(N)=O.[Cl-]` [--CONH2, [(R)-3-carboxy-2-carbamoylaminopropyl]trimethylammonium chloride], for which the “Inhibition (%)” value in series [2] (concentration of drug 0.2 mM) stood at 34%; in series [2] (setting [6]), 72%. Also, the “relative amount of β-hydroxybutylate (%)” value in series [3] came out at 63.2%.

With `C[N+](C)(C)C[C@@H](CC(=O)[O-])NC(=O)OCc1ccccc1` [--COOCH2 C6 H5, (R)-3-benzyloxycarbonylamino-4-trimethylammoniobutyrate], the “Inhibition (%)” value in series [2] (concentration of drug 0.2 mM) is 85%; in series [2] (setting [6]) it was 98%. In addition, the “relative amount of β-hydroxybutylate (%)” value in series [3] amounted to 19.7%.

On to `CC(=O)N[C@H](CC(=O)[O-])C[N+](C)(C)C` [FA-5859], for which, in series [1], the Stability entry was “Stable”. Moreover, the Solubility entry is reported as “Soluble” in the series “Solubilities” (in ethanol, methanol); “Insoluble” in the series “Solubilities” (setting [4]); “Hardly soluble” in the series “Solubilities” (setting [5]); “Readily soluble” in “Solubilities” (in water).

The record behind these values is US4767781A, “Derivatives of beta-amino-gamma-trimethylammonio-butyrate and their production and use” (Takeda Chemical Industries, Ltd., priority 1981, dated 1988).
